Like-named read-outs stand apart in the source and are kept apart here.
Key:
[1] = tested on: human renal cancer (MRI-H-121); experiment: xenograft model of human renal cancer; type: in vivo; conditions: for % T/C / Comments: intraperitoneal
Method: Spisulosine 285 was tested in in vivo studies against xenograft models of human prostate cancer (PC-3) and human renal cancer (MRI-H-121). These models use subcutaneously implanted solid human tumors that grow and increase in volume over time. The mean volume of tumor growth in control animals provides the basis for comparison. […] A level of activity that is less than 40% T/C is considered statistically significant. The doses of spisulosine used were given at the maximum tolerated, non lethal dose (MTD), ½ MTD and ¼ MTD. Delivery of the drug was by the intraperitoneal route.

PANC-1 = experiment: expanded in vitro screen, PANC-1; type: cell-based; conditions: Homo sapiens; PANC-1, Pancreas, solid
Method: (§1) An expanded in vitro screen was performed of spisulosine 285 against a series of different cell lines.

HT-29 = experiment: in vitro tumor cell line activity, HT-29; type: cell-based
HL60 = experiment: expanded in vitro screen, HL60; type: cell-based; conditions: Homo sapiens, HL-60; HL60, Leukemia
Method: as §1

P3HR1 = experiment: expanded in vitro screen, P3HR1; type: cell-based; conditions: Homo sapiens, P3HR-1; P3HR1, Burkitts
Method: as §1

Vero cells [2] = experiment: Vero cell morphology (Example A); type: cell-based; conditions: 0.5 mM, 4 hours
Method: Vero cells were grown in Dulbecco's modified Eagle medium supplemented with 10% foetal bovine serum. Spisulosine or LPA were added to these cultures to a concentration of […] and 50–10 mM respectively, from 4 to 24 hours. Cells were counted with the […] haemocytometer procedure using a solution of 0.4% Trypan blue in Hanks buffered Saline (Celis and Celis, “General Procedures for Tissue Culture in Cell Biology, a Laboratory Handbook” Academic Press Inc, Vol 1, pp. 5–17.)
Vero cells were incubated with spisulosine 285 (0.5 mM) for 4 hours. […] Panel c represents a higher magnification of the culture to which spisulosine was added.

Hs 746T = experiment: expanded in vitro screen, Hs 746T; type: cell-based; conditions: Homo sapiens, Hs746T, Stomach, solid
Method: as §1

[3] = tested on: L1210 murine lymphocytic leukemia cells; experiment: L1210 cytotoxicity assay (inhibition of growth); type: cell-based
Method: The morphological effect was usually measured 30–35 h after the start of the assay and again about 24 h later, while the cytotoxicity was determined when the number of cells in the controls reached approximately 8000, usually in 3 days after the assay was begun. It should be noted that the pointed cells were live cells and that they were counted as such for the cytotoxicity reading. […] All morphologically-changed cells were counted in the pointed cell percentage.
Cytotoxicity assays against L1210 murine lymphocytic leukemia cells were performed by dissolving the samples in methanol and/or hexane were applied to the dry assay wells and the solvent was allowed to evaporate. Cells (1000) were added in minimum essential medium (MEM, 1 ml) and incubated 37° C. Inhibition of growth was recorded as the estimated percentage of living cells in sample wells versus that in control wells.

P-388 = experiment: in vitro tumor cell line activity, P-388; type: cell-based
SK-OV-3 = experiment: expanded in vitro screen, SK-OV-3; type: cell-based; conditions: Homo sapiens; SK-OV-3, Ovary, solid
Method: as §1

U-937 = experiment: expanded in vitro screen, U-937; type: cell-based; conditions: Homo sapiens; U-937, Lymphoma
Method: as §1

Vero cells [4] = experiment: effect of LPA on the action of spisulosine 285 in Vero cells (Example D); type: cell-based; conditions: spisulosine alone, 24 hours
Source text: LPA is known to increase the level of stress fibers in cells by activation of the Rho protein. The effect of LPA on cells treated with spisulosine 285, and untreated cells was examined. […]

CCRF-SB = experiment: expanded in vitro screen, CCRF-SB; type: cell-based; conditions: Homo sapiens, Leukemia
Method: as §1

MX-1 = experiment: expanded in vitro screen, MX-1; type: cell-based; conditions: Homo sapiens, MX1; MX-1, Mammary, solid
Method: as §1

RAMOS = experiment: expanded in vitro screen, RAMOS; type: cell-based; conditions: Homo sapiens, Burkitts
Method: as §1

IC50 (PANC-1): 1.71 pM
IC50 (HL60): 8.5 pM
IC50 (P3HR1): 67.3 pM
IC50 (Hs 746T): 7.89 pM
IC50 (SK-OV-3): 14 pM
IC50 (U-937): 19.6 pM
IC50 (CCRF-SB): 1050 pM
IC50 (MX-1): 38.9 pM
IC50 (RAMOS): 48.2 pM
SMILES: CCCCCCCCCCCCCCC[C@@H](O)[C@H](C)N [Spisulosine 285, (2S,3R)-2-Amino-3-octadecanol]
effect on tumour growth (in words) ([1]; effects continuing up to a few weeks after the last dose): reduces the growth of the human renal cancer
% T/C ([1]; total dose 2.499 mg/kg, day 15): 43%
% T/C ([1]; total dose 5.010 mg/kg, day 11): 35%
Comments ([1]; total dose 5.010 mg/kg, day 11): inhibition (partial
% T/C ([1]; total dose 9.990 mg/kg, day 11): 28%
Comments ([1]; total dose 9.990 mg/kg, day 11): inhibition (partial
active against tumor cell line in vitro (concentration) (HT-29): 0.05 mg/mL
cell shape (Vero cells [2]): altered from polygonal (untreated cells, panel a) to a fusiform shape
cytotoxicity at 0.01 µg/mL ([3]; Mus musculus, L1210, 0.01 μg/ml): 45%
cytotoxicity at […] ([3]; Mus musculus, L1210, 0.025 μg/ml): 90%
cytotoxicity at 0.05 µg/mL ([3]; Mus musculus, L1210, 0.05 μg/ml): 96%
cytotoxicity at 0.1 µg/mL ([3]; Mus musculus, L1210, 0.1 μg/ml): 99%
inhibition at 0.1 µg/mL ([3]; Mus musculus, L1210, 0.1 μg/ml, read-out: % Inhibitiion): 63%
cytotoxicity at […] ([3]; Mus musculus, L1210, 0.25 μg/ml): 99%
inhibition at […] ([3]; Mus musculus, L1210, 0.25 μg/ml, read-out: % Inhibitiion): 96%
cytotoxicity at 0.5 µg/mL ([3]; Mus musculus, L1210, 0.5 μg/ml): 100%
inhibition at 0.5 µg/mL ([3]; Mus musculus, L1210, 0.5 μg/ml, read-out: % Inhibitiion): 99%
inhibition at 1 µg/mL ([3]; Mus musculus, L1210, 1 μg/ml, read-out: % Inhibitiion): 100%
inhibition at […] ([3]; Mus musculus, L1210, 2.5 μg/ml, read-out: % Inhibitiion): 100%
inhibition at 5 µg/mL ([3]; Mus musculus, L1210, 5 μg/ml, read-out: % Inhibitiion): 100%
L1210 cytotoxicity (in words) ([3]; listed as 1): showed both cytotoxicity and morphological alteration
active against tumor cell line in vitro (concentration) (P-388): 0.01 mg/mL
cell morphology (Vero cells [4]): appearance of rounded cells
